Results on 15 molecules are retold here after PMC3948918 (PLoS ONE, 2014).

Like-named read-outs stand apart in the source and are kept apart here. Numbered stars: 1 amine (or outer) side, 2 acyl side, 3 side chain; on linkers, the order of the positions; unused ones are H or OH. Bridge positions count the residues as written; N and C are the ends. Square brackets hold non-standard residues; d marks the D form. Peptide text beside a SMILES is read from it. Adda = CO[C@@H](Cc1ccccc1)[C@@H](C)/C=C(C)/C=C/[C@H](N[*:1])[C@H](C)C(=O)[*:2]; dAsp(3S-Me) = C[C@H](C(=O)[*:3])[C@@H](N[*:1])C(=O)[*:2]; d(γGlu) = O=C(O)[C@@H](CCC(=O)[*:2])N[*:1]; NMeDha = C=C(NC)C(=O)O

Series [1] deals with OATP1B1- and OATP1B3-expressing HeLa or RKO cell lines.
In series [2] the test system is OATP1B3-expressing HeLa cells. The note with it: for IC50: read-out: IC50 HeLa B3.
Another series relates to HeLa Control cells. The note with it: read-out: IC50 HeLa Control.
The test system of series [3] is OATP1B1-expressing HeLa cells. The note with it: read-out: IC50 HeLa B1.
Series [4] relates to OATP1B1-expressing RKO cells. The note with it: read-out: IC50 RKO B1.
In series [5] the test system is OATP1B3-expressing RKO cells.
A further series relates to OATP1B1. Put plainly: in vitro. The note with it: human.

As usually defined, the IC50 is the point on the concentration scale where inhibition reaches its midpoint. Regarding `C/C=C1/NC(=O)CC[C@H](C(=O)O)NC(=O)[C@@H](C)[C@H](/C=C/C(C)=C/[C@H](C)[C@H](Cc2ccccc2)OC)NC(=O)[C@H](Cc2ccc(O)cc2)NC(=O)C[C@H](C(=O)O)NC(=O)[C@H](CC(C)C)NC(=O)[C@@H](C)NC1=O` [compound 6, [D-Asp^3,(E)-Dhb^7]MC-LY], the “IC50 values (potency grouping)” value in series [1] is on record as “sub-nanomolar”. Moreover, the “transporter selectivity (in words)” value in series [1] was “weakly OATP1B3 selective”. For the same molecule, in series [2], the “Ratio IC50 B1/B3 HeLa” value was 2.6. For the same molecule, the IC50 in series [2] was 0.18 nM; in the series with HeLa Control cells, greater than 10 nM; in series [3], 0.47 nM.

Consider `C=C1C(=O)N[C@H](C)C(=O)N[C@@H](CC(C)C)C(=O)N[C@@H](C(=O)O)[C@H](C)C(=O)N[C@@H](Cc2c[nH]c3ccccc23)C(=O)N[C@@H](/C=C/C(C)=C/[C@H](C)[C@H](Cc2ccccc2)OC)[C@H](C)C(=O)N[C@@H](C(=O)O)CCC(=O)N1C` [compound 8, LW, reference compound] (W[Adda][d(γGlu)][NMeDha][dA]L[dAsp(3S-Me)]-OH; lactam N-7), for which, in series [1], the “IC50 values (potency grouping)” value is reported as “sub-nanomolar”. Besides, the “transporter selectivity (in words)” value in series [1] is on record as “weakly OATP1B3 selective”. In series [2], the “Ratio IC50 B1/B3 HeLa” value is reported as 1.4. Moreover, the IC50 was 0.16 nM in series [2]; greater than 1000 nM in the series with RKO control cells (read-out: IC50 RKO control); 0.4 nM in series [4]; 0.29 nM in series [5] (read-out: IC50 RKO B3); greater than 1000 nM with HeLa Control cells; 0.22 nM in series [3]. For the same molecule, the “Ratio IC50 B1/B3 RKO” value in series [5] turned out to be 1.4.

As for `C=C1C(=O)N[C@H](C)C(=O)N[C@@H](CC(C)C)C(=O)N[C@@H](C(=O)O)[C@H](C)C(=O)N[C@@H](CCCNC(=N)N)C(=O)N[C@@H](/C=C/C(C)=C/[C@H](C)[C@H](Cc2ccccc2)OC)[C@H](C)C(=O)N[C@@H](C(=O)O)CCC(=O)N1C` [compound 1, MC-LR, reference compound] (R[Adda][d(γGlu)][NMeDha][dA]L[dAsp(3S-Me)]-OH; lactam N-7), the “transporter selectivity (in words)” value in series [1] was “least OATP1B3 selective”. Also, the “Ratio IC50 B1/B3 HeLa” value in series [2] is recorded as 0.2. Also, the IC50 in series [2] is 5.1 nM; with RKO control cells (read-out: IC50 RKO control), greater than 1000 nM; in series [4], 8.2 nM; in series [5] (read-out: IC50 RKO B3), 26.9 nM; with HeLa Control cells, greater than 1000 nM; in series [3] it was 1 nM. Besides, the “Ratio IC50 B1/B3 RKO” value in series [5] worked out at 0.3.

With `C/C=C1/NC(=O)CC[C@H](C(=O)O)NC(=O)[C@@H](C)[C@H](/C=C/C(C)=C/[C@H](C)[C@H](Cc2ccccc2)OC)NC(=O)[C@H](Cc2c[nH]c3ccccc23)NC(=O)C[C@H](C(=O)O)NC(=O)[C@H](CC(C)C)NC(=O)[C@@H](C)NC1=O` [compound 9, [D-Asp^3,(E)-Dhb^7]-MC-LW], the “transporter selectivity (in words)” value in series [1] is recorded as “weakly OATP1B3 selective”. Besides, the figures for the IC50 (with RKO control cells (read-out: IC50 RKO control); in series [4]; in series [5] (read-out: IC50 RKO B3)) were greater than 1000 nM, 11 nM and 7.7 nM, respectively. For the same molecule, in series [5], the “Ratio IC50 B1/B3 RKO” value was 1.4.

`C=C1C(=O)N[C@H](C)C(=O)N[C@@H](Cc2ccc(O)cc2)C(=O)N[C@@H](C(=O)O)[C@H](C)C(=O)N[C@@H](Cc2ccc(O)cc2)C(=O)N[C@@H](/C=C/C(C)=C/[C@H](C)[C@H](Cc2ccccc2)OC)[C@H](C)C(=O)N[C@@H](C(=O)O)CCC(=O)N1C` [compound 17, MC-YY] (Y[Adda][d(γGlu)][NMeDha][dA]Y[dAsp(3S-Me)]-OH; lactam N-7): the “IC50 values (potency grouping)” value in series [1] is reported as “sub-nanomolar”. For the same molecule, in series [2], the “Ratio IC50 B1/B3 HeLa” value was determined as 1.9. Besides, the IC50 in series [2] turned out to be 0.8 nM; with HeLa Control cells, 259 nM; in series [3], 1.5 nM.

On to `CC=C1C(=O)N[C@@H](C(=O)O)[C@H](C)C(=O)N[C@@H](CCCNC(=N)N)C(=O)N[C@@H](/C=C/C(C)=C/[C@H](C)[C@H](Cc2ccccc2)OC)[C@H](C)C(=O)N[C@@H](C(=O)O)CCC(=O)N1C` [compound 23, Nodularin], for which, in series [2], the “Ratio IC50 B1/B3 HeLa” value is on record as less than 0.1. In addition, the IC50 in series [2] was greater than 100 nM; with RKO control cells (read-out: IC50 RKO control), greater than 100 nM; in series [4], 10 nM; in series [5] (read-out: IC50 RKO B3), greater than 100 nM; with HeLa Control cells, greater than 100 nM; in series [3], 8.4 nM. Moreover, in series [5], the “Ratio IC50 B1/B3 RKO” value is less than 0.1.

As for `C=C1C(=O)N[C@H](C)C(=O)N[C@@H](CC(C)CC)C(=O)N[C@@H](C(=O)O)CC(=O)N[C@@H](CCCNC(=N)N)C(=O)N[C@@H](/C=C/C(C)=C/[C@H](C)[C@H](Cc2ccccc2)OC)[C@H](C)C(=O)N[C@@H](C(=O)O)CCC(=O)N1C` (stereo partly drawn) [compound 3, [D-Asp^3]MC-HilR], the concentration for half-maximal inhibition (IC50) was 57 nM with OATP1B1, greater than 1000 nM in the series on RKO control cells (3 h) and 142 nM in series [5] (human). In addition, in series [1], the “transporter selectivity (in words)” value is “least OATP1B3 selective”. The “Ratio IC50 B1/B3 RKO” value in series [5] was 0.4.

As to `C=C1C(=O)N[C@H](C)C(=O)N[C@@H](CC(C)C)C(=O)N[C@@H](C(=O)O)CC(=O)N[C@@H](CCCNC(=N)N)C(=O)N[C@@H](/C=C/C(C)=C/[C@H](C)[C@H](Cc2ccccc2)OC)[C@H](C)C(=O)N[C@@H](C(=O)O)CCC(=O)N1C` [compound 2, [D-Asp^3]MC-LR], the “transporter selectivity (in words)” value in series [1] is listed as “least OATP1B3 selective”. Also, the IC50 with RKO control cells (read-out: IC50 RKO control) is greater than 1000 nM; in series [4], 7.3 nM; in series [5] (read-out: IC50 RKO B3) it was 31.3 nM. For the same molecule, in series [5], the “Ratio IC50 B1/B3 RKO” value is 0.2.

Regarding `C=C1C(=O)N[C@H](C)C(=O)N[C@@H](Cc2ccc(O)cc2)C(=O)N[C@@H](C(=O)O)CC(=O)N[C@@H](CCCNC(=N)N)C(=O)N[C@@H](/C=C/C(C)=C/[C@H](C)[C@H](Cc2ccccc2)OC)[C@H](C)C(=O)N[C@@H](C(=O)O)CCC(=O)N1C` [compound 14, [D-Asp^3]MC-YR], the IC50 is greater than 1000 nM with RKO control cells (read-out: IC50 RKO control), 149 nM in series [4] and 48 nM in series [5] (read-out: IC50 RKO B3). Further, the “Ratio IC50 B1/B3 RKO” value in series [5] is on record as 3.1.

For the molecule `C=C1C(=O)N[C@H](C)C(=O)N[C@@H](CCCNC(=N)N)C(=O)N[C@@H](C(=O)O)[C@H](C)C(=O)N[C@@H](Cc2ccccc2)C(=O)N[C@@H](/C=C/C(C)=C/[C@H](C)[C@H](Cc2ccccc2)OC)[C@H](C)C(=O)N[C@@H](C(=O)O)CCC(=O)N1C` [compound 12, MC-RF] (F[Adda][d(γGlu)][NMeDha][dA]R[dAsp(3S-Me)]-OH; lactam N-7), the “transporter selectivity (in words)” value in series [1] is recorded as “most OATP1B3 selective”. The IC50 was greater than 1000 nM in the series on RKO control cells (read-out: IC50 RKO control), 58.3 nM in series [4] and 3.38 nM in series [5] (read-out: IC50 RKO B3). Besides, the “Ratio IC50 B1/B3 RKO” value in series [5] came to 17.2.

Turning to `C=C1C(=O)N[C@H](C)C(=O)N[C@@H](CC(C)C)C(=O)N[C@@H](C(=O)O)[C@H](C)C(=O)N[C@@H](Cc2ccc(O)cc2)C(=O)N[C@@H](/C=C/C(C)=C/[C@H](C)[C@H](Cc2ccccc2)OC)[C@H](C)C(=O)N[C@@H](C(=O)O)CCC(=O)N1C` [compound 5, MC-LY] (Y[Adda][d(γGlu)][NMeDha][dA]L[dAsp(3S-Me)]-OH; lactam N-7), in series [1], the “IC50 values (potency grouping)” value is “sub-nanomolar”. The “transporter selectivity (in words)” value in series [1] is “least OATP1B3 selective”. Besides, the “Ratio IC50 B1/B3 HeLa” value in series [2] is 0.8. The IC50 was 0.21 nM in series [2], greater than 10 nM in the series with HeLa Control cells and 0.16 nM in series [3].

For the molecule `C=C1C(=O)N[C@H](C)C(=O)N[C@@H](Cc2ccc(O)cc2)C(=O)N[C@@H](C(=O)O)[C@H](C)C(=O)N[C@@H](CCCNC(=N)N)C(=O)N[C@@H](/C=C/C(C)=C/[C@H](C)[C@H](Cc2ccccc2)OC)[C@H](C)C(=O)N[C@@H](C(=O)OC)CCC(=O)N1C` [compound 22, [D-Glu(OMe)^6]MC-YR], the IC50 in series [1] (read-out: IC50 values (potency grouping)) was greater than 100 nM; in the series with RKO control cells (read-out: IC50 RKO control), greater than 1000 nM; in series [4], 595 nM; in series [5] (read-out: IC50 RKO B3), 227 nM. Besides, the “Ratio IC50 B1/B3 RKO” value in series [5] is given as 2.6.

Regarding `C=C1C(=O)N[C@H](C)C(=O)N[C@@H](CCCNC(=N)N)C(=O)N[C@@H](C(=O)O)[C@H](C)C(=O)N[C@@H](Cc2ccc(O)cc2)C(=O)N[C@@H](/C=C/C(C)=C/[C@H](C)[C@H](Cc2ccccc2)OC)[C@H](C)C(=O)N[C@@H](C(=O)O)CCC(=O)N1C` [compound 16, MC-RY] (Y[Adda][d(γGlu)][NMeDha][dA]R[dAsp(3S-Me)]-OH; lactam N-7), in series [1], the “transporter selectivity (in words)” value was “most OATP1B3 selective”. The “Ratio IC50 B1/B3 HeLa” value in series [2] is 30.8. Also, the half-inhibitory concentration (IC50) in series [2] was 2.5 nM; in the series with HeLa Control cells, greater than 1000 nM; in series [3], 77 nM.

For the molecule `C/C=C1/NC(=O)CC[C@H](C(=O)O)NC(=O)[C@@H](C)[C@H](/C=C/C(C)=C/[C@H](C)[C@H](Cc2ccccc2)OC)NC(=O)[C@H](Cc2c[nH]c3ccccc23)NC(=O)C[C@H](C(=O)O)NC(=O)[C@H](CCc2ccc(O)cc2)NC(=O)[C@@H](C)NC1=O` [compound 20, [D-Asp^3,(E)-Dhb^7]MC-HtyW], the IC50 in the series with OATP1B1 is 4.9 nM; in the series on RKO control cells (3 h), greater than 100 nM; in series [5] (human) it was 2.57 nM. The “Ratio IC50 B1/B3 RKO” value in series [5] turned out to be 1.9.

`C/C=C1/NC(=O)CC[C@H](C(=O)O)NC(=O)[C@@H](C)[C@H](/C=C/C(C)=C/[C@H](C)[C@H](Cc2ccccc2)OC)NC(=O)[C@H](CCCNC(=N)N)NC(=O)C[C@H](C(=O)O)NC(=O)[C@H](Cc2ccc(O)cc2)NC(=O)[C@@H](C)NC1=O` [compound 15, [D-Asp^3,(E)-Dhb^7]MC-YR]: the “transporter selectivity (in words)” value in series [1] was “most OATP1B3 selective”. Besides, the values for the IC50 (in the series on RKO control cells (read-out: IC50 RKO control); in series [4]; in series [5] (read-out: IC50 RKO B3)) were greater than 1000 nM, 108 nM and 27.1 nM, respectively. The “Ratio IC50 B1/B3 RKO” value in series [5] is listed as 4.0.
